Molecules are shown by their SMILES.

Here are results for 20 compounds from patent US9120805B2, “Substituted pyrrolo[1,2-A]pyrazin-1-ones and pyrazolo[1,5-A]pyrazin-4-ones as inhibitors of tankyrase and poly(ADP-ribose)polymerase activity” (Merck Patent GmbH, priority 2012, dated 2015).

Common to all, as to format: biochemical
The target in assay [1] is T1, GST-tagged Tnks-2 (873-1166 aa) (Homo sapiens, UniProt Q9H2K2).
T1 construct: GST-tagged Tnks-2 (873-1166 aa, prepared in-house); made in house
T1 sequence (Q9H2K2 873-1166): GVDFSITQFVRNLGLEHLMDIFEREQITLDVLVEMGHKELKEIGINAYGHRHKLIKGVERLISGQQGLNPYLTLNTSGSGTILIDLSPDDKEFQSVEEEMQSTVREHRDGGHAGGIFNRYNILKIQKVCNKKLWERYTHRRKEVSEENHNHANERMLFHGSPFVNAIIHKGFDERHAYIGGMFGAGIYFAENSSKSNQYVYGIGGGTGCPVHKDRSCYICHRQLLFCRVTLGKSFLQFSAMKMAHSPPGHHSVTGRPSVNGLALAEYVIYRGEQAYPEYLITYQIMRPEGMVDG
Put plainly: TNKS2 activity ELISA (autoparsylation assay). The protocol:
(§1) Description of the TNKS1 and TNKS2 ELISA Assay
(§2) Biochemical Activity Testing of TNKS 1 and 2: Activity ELISA (Autoparsylation Assay)
(§3) For analysis of autoparsylation activity of TNKS 1 and 2 an activity ELISA is performed: In the first step GST tagged TNKS is captured on a Glutathione coated plate. Then the activity assay with biotinylated NAD is performed in the absence/presence of the compounds. During the enzymatic reaction GST tagged TNKS transfers biotinylated ADP-ribose to itself from biotinylated NAD as co-substrate. For the detection streptavidin-HRP conjugate is added that binds to the biotinylated TNKS and is thereby captured to the plates. The amount of biotinylated resp. autoparsylated TNKS is detected with a luminescence substrate for HRP. The level of the luminescence signal correlates directly with the amount of autoparsylated TNKS and therefore with activity of TNKS.
(§4) The activity ELISA is performed in 384 well Glutathione coated microtiter plates (Express capture Glutathione coated plate, Biocat, Heidelberg, Germany). The plates are pre-equilibrated with PBS. Then the plates are incubated with 50 μl 20 ng/well GST-tagged Tnks-1 (1023-1327 aa, prepared in-house), respectively GST-tagged Tnks-2 (873-1166 aa, prepared in-house) in assay buffer (50 mM HEPES, 4 mM Mg-chloride, 0.05% Pluronic F-68, 2 mM DTT, pH 7.7) overnight at 4° C. The plates are washed 3 times with PBS-Tween-20. The wells are blocked by incubation at room temperature for 20 minutes with 50 μl blocking buffer (PBS, 0.05% Tween-20, 0.5% BSA). Afterwards the plates are washed 3 times with PBS-Tween-20. The enzymatic reaction is performed in 50 μl reaction solution (50 mM HEPES, 4 mM Mg-chloride, 0.05% Pluronic F-68, 1.4 mM DTT, 0.5% DMSO, pH 7.7) with 10 μM bio-NAD (Biolog, Life science Inst., Bremen, Germany) as co-substrate in the absence or presence of the test compound (10 dilution concentrations) for 1 hour at 30° C. The reaction is stopped by 3 times washing with PBS-Tween-20. For the detection 50 μl of 20 ng/μl Streptavidin, HRP conjugate (MoBiTec, Göttingen, Germany) in PBS/0.05% Tween-20/0.01% BSA are added and the plates are incubated for 30 minutes at room temperature. After three times washing with PBS-Tween-20 50 μl of SuperSignal ELISA Femto Maximum sensitivity substrate solution (ThermoFisherScientific (Pierce), Bonn, Germany) are added. Following a 1 minute incubation at room temperature luminescence signals are measured with an Envision multimode reader (Perkin Elmer LAS Germany GmbH) at 700 nm. The full value used is the inhibitor-free reaction. The pharmacological zero value used is XAV-939 (Tocris) in a final concentration of 5 μM. The inhibitory values (1050) are determined using either the program Symyx Assay Explorer® or Condosseo® from GeneData.

Another assay has as its target T2, His-tagged Parp-1 (Homo sapiens, UniProt P09874).
T2 construct: purchased Enzo Life Sciences GmbH
Put plainly: PARP-1 autoparsylation assay (HTRF). The settings on record: PARP-1 autoparsylation HTRF assay. For orientation: Time-resolved FRET reads energy transfer from a long-lived donor to a nearby acceptor.

The target in assay [2] is T3, GST-tagged Tnks-1 (1023-1327 aa) (Homo sapiens, UniProt O95271).
T3 construct: GST-tagged Tnks-1 (1023-1327 aa, prepared in-house); made in house
T3 sequence (O95271 1023-1327): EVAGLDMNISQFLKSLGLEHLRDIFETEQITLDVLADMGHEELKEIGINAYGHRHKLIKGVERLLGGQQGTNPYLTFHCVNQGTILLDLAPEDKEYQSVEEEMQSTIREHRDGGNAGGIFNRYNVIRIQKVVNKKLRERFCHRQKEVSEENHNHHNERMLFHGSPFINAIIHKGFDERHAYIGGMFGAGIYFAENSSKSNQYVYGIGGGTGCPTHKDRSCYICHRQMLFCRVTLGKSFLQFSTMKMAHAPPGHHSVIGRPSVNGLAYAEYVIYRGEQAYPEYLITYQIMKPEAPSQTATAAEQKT
Kind of assay: TNKS1 activity ELISA (autoparsylation assay). The protocol:
as §1, §2, §3, §4
(In an ELISA, binding on a coated surface is turned into a signal by an enzyme label.)

T2 sequence (P09874 whole entry): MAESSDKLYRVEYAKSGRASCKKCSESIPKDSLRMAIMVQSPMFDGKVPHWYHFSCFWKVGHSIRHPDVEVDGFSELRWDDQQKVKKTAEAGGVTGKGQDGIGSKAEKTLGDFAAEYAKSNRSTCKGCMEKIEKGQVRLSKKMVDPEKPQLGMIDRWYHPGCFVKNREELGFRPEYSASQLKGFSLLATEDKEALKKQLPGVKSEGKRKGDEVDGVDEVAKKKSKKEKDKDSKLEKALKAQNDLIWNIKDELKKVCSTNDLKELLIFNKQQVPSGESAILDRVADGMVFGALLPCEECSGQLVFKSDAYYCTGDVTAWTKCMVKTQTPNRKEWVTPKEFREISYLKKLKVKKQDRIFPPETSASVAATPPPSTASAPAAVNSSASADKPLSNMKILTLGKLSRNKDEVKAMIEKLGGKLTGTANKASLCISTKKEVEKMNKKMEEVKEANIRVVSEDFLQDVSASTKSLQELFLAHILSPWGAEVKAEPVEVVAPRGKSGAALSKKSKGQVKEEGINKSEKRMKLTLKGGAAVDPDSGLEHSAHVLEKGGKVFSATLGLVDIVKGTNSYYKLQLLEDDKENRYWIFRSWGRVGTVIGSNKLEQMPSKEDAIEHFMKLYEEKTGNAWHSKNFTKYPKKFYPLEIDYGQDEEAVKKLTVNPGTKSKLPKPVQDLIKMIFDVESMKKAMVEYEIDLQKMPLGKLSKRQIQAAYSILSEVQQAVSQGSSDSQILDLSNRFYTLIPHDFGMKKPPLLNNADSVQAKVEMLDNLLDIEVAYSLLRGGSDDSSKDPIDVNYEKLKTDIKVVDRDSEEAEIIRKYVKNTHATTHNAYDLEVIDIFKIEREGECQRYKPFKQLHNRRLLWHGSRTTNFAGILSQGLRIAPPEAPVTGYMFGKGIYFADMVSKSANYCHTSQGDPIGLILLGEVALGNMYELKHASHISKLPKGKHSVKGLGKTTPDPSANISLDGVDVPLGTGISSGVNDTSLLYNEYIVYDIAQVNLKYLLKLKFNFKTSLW

As usually defined, the IC50 is the point on the concentration scale where inhibition reaches its midpoint. A high value points to lower potency. In the case of `CC(C)(C)c1ccc(-c2cn3cccc3c(=O)[nH]2)cc1` [Compound A11, 3-(4-tert-butyl-phenyl)-2H-pyrrolo[1,2-a]pyrazin-1-one], the IC50 in assay [1] was below 300 nM; on His-tagged Parp-1, 3 to 50 µM; in assay [2], below 300 nM.

Regarding `Cc1ccc(-c2cn3cccc3c(=O)[nH]2)cc1` [Compound A12, 3-p-tolyl-2H-pyrrolo[1,2-a]pyrazin-1-one], the values for the IC50 (in assay [1]; against His-tagged Parp-1; in assay [2]) were below 300 nM, 0.3 to 3 µM and below 300 nM, respectively.

For the compound `Cn1cc(-c2ccc(-c3cn4cccc4c(=O)[nH]3)cc2)cn1` [Compound A25, 3-[4-(1-methyl-1H-pyrazol-4-yl)-phenyl]-2H-pyrrolo[1,2-a]pyrazin-1-one], the IC50 is below 300 nM in assay [1], 3 to 50 µM on His-tagged Parp-1 and below 300 nM in assay [2].

In the case of `CC(C)(O)c1ccc(-c2cn3cccc3c(=O)[nH]2)cc1` [Compound A29, 3-[4-(1-hydroxy-1-methyl-ethyl)-phenyl]-2H-pyrrolo[1,2-a]pyrazin-1-one], the IC50 in assay [1] is below 300 nM; against His-tagged Parp-1 it was 0.3 to 3 µM; in assay [2], below 300 nM.

`CC(C)(C)c1ccc(-c2cn3cc(F)cc3c(=O)[nH]2)cc1` [Compound A35, 3-(4-tert-butyl-phenyl)-7-fluoro-2H-pyrrolo[1,2-a]pyrazin-1-one]: the IC50 in assay [1] was below 300 nM; against His-tagged Parp-1, 3 to 50 µM; in assay [2] it was below 300 nM.

As for `Cc1cc2c(=O)[nH]c(-c3ccc(C(C)(C)O)cc3)cn2n1` [Compound A46, 6-[4-(1-hydroxy-1-methyl-ethyl)phenyl]-2-methyl-5H-pyrazolo[1,5-a]pyrazin-4-one], the values for the IC50 (in assay [1]; against His-tagged Parp-1; in assay [2]) were below 300 nM, 0.3 to 3 µM and below 300 nM, respectively.

Take `Cc1cc2c(=O)[nH]c(-c3ccc(C(C)(C)O)cc3)cn2c1` [Compound A56, 3-[4-(1-hydroxy-1-methyl-ethyl)-phenyl]-7-methyl-2H-pyrrolo[1,2-a]pyrazin-1-one]: the IC50 in assay [1] was below 300 nM; at His-tagged Parp-1, 0.3 to 3 µM; in assay [2], below 300 nM.

Turning to `CC(C)(O)c1ccc(-c2cn3cc(F)cc3c(=O)[nH]2)cc1` [Compound A59, 7-fluoro-3-[4-(1-hydroxy-1-methyl-ethyl)-phenyl]-2H-pyrrolo[1,2-a]pyrazin-1-one], the IC50 in assay [1] was below 300 nM; against His-tagged Parp-1, 0.3 to 3 µM; in assay [2], below 300 nM.

With `CC(C)(O)c1ccc(-c2cn3cc(Cl)cc3c(=O)[nH]2)cc1` [Compound A60, 7-chloro-3-[4-(1-hydroxy-1-methyl-ethyl)-phenyl]-2H-pyrrolo[1,2-a]pyrazin-1-one], the IC50 is below 300 nM in assay [1], 0.3 to 3 µM on His-tagged Parp-1 and below 300 nM in assay [2].

Regarding `CCC(O)(CC)c1ccc(-c2cn3cc(F)cc3c(=O)[nH]2)cc1` [Compound A61, 3-[4-(1-ethyl-1-hydroxy-propyl)-phenyl]-7-fluoro-2H-pyrrolo[1,2-a]pyrazin-1-one], the values for the IC50 (in assay [1]; against His-tagged Parp-1; in assay [2]) were below 300 nM, 0.3 to 3 µM and below 300 nM, respectively.

As to `CC(C)(F)c1ccc(-c2cn3cc(F)cc3c(=O)[nH]2)cc1` [Compound A63, 7-fluoro-3-[4-(1-fluoro-1-methyl-ethyl)-phenyl]-2H-pyrrolo[1,2-a]pyrazin-1-one], the IC50 in assay [1] is below 300 nM; at His-tagged Parp-1, 0.3 to 3 µM; in assay [2], below 300 nM.

With `CC(C)(OCCO)c1ccc(-c2cn3cc(F)cc3c(=O)[nH]2)cc1` [Compound A70, 7-fluoro-3-{4-[1-(2-hydroxy-ethoxy)-1-methyl-ethyl]-phenyl}-2H-pyrrolo[1,2-a]pyrazin-1-one], the IC50 is below 300 nM in assay [1], 0.3 to 3 µM at His-tagged Parp-1 and below 300 nM in assay [2].

`COCCOC(C)(C)c1ccc(-c2cn3cc(F)cc3c(=O)[nH]2)cc1` [Compound A71, 7-fluoro-3-{4-[1-(2-methoxy-ethoxy)-1-methyl-ethyl]-phenyl}-2H-pyrrolo[1,2-a]pyrazin-1-one]: the IC50 in assay [1] is below 300 nM; at His-tagged Parp-1 it was 3 to 50 µM; in assay [2] it was below 300 nM.

On to `CC(C)(N)c1ccc(-c2cn3cc(F)cc3c(=O)[nH]2)cc1` [Compound A72, 3-[4-(1-amino-1-methyl-ethyl)-phenyl]-7-fluoro-2H-pyrrolo[1,2-a]pyrazin-1-one], for which the IC50 in assay [1] is below 300 nM; against His-tagged Parp-1, below 0.3 µM; in assay [2] it was below 300 nM.

For the compound `CC1(c2ccc(-c3cn4cc(F)cc4c(=O)[nH]3)cc2)CCCO1` (stereo not drawn) [Compound A73, 7-fluoro-3-[4-(2-methyl-tetrahydro-furan-2-yl)-phenyl]-2H-pyrrolo[1,2-a]pyrazin-1-one], the IC50 was below 300 nM in assay [1], 0.3 to 3 µM on His-tagged Parp-1 and below 300 nM in assay [2].

As for `O=c1[nH]c(-c2ccc(C3CCNCC3)cc2)cn2cccc12` [Compound A75, 3-(4-piperidin-4-yl-phenyl)-2H-pyrrolo[1,2-a]pyrazin-1-one], the figures for the IC50 (in assay [1]; at His-tagged Parp-1; in assay [2]) were below 300 nM, 3 to 50 µM and below 300 nM, respectively.

`O=c1[nH]c(-c2ccc(C3CCNC3)cc2)cn2cccc12` (stereo not drawn) [Compound A76, 3-(4-Pyrrolidin-3-yl-phenyl)-2H-pyrrolo[1,2-a]pyrazin-1-one]: the IC50 is below 300 nM in assay [1], 0.3 to 3 µM against His-tagged Parp-1 and below 300 nM in assay [2].

Regarding `CN1CCC(c2ccc(-c3cn4cccc4c(=O)[nH]3)cc2)CC1` [Compound A79, 3-[4-(1-methyl-piperidin-4-yl)-phenyl]-2H-pyrrolo[1,2-a]pyrazin-1-one], the IC50 in assay [1] is below 300 nM; against His-tagged Parp-1, 3 to 50 µM; in assay [2] it was below 300 nM.

As for `CN1CCC(c2ccc(-c3cn4cccc4c(=O)[nH]3)cc2)C1` (stereo not drawn) [Compound A80, 3-[4-(1-methyl-pyrrolidin-3-yl)-phenyl]-2H-pyrrolo[1,2-a]pyrazin-1-one], the IC50 was below 300 nM in assay [1], 3 to 50 µM against His-tagged Parp-1 and below 300 nM in assay [2].

In the case of `O=c1[nH]c(-c2ccc(C3(O)CCC3)cc2)cn2cccc12` [Compound A111], the IC50 in assay [1] is below 300 nM; against His-tagged Parp-1, 0.3 to 3 µM; in assay [2] it was below 300 nM.
